According to patent US9403839B2, “Pyran-spirocyclic piperidine amides as modulators of ion channels” (Vertex Pharmaceuticals Incorporated, priority 2012, dated 2016):
pIC50: −log10 of the molar value.

target: human NaV subtype, like NaV 1.7 (Homo sapiens, UniProt Q15858); assay: E-VIPR optical membrane potential assay with electrical stimulation; type: cell-based; details: one or more sodium channels; assay and NaV subtype not specified for Table 3; read-out: IC50 Binned Activity Data
Text: Assays for Detecting and Measuring NaV Inhibition Properties of Compound E-VIPR Optical Membrane Potential Assay Method with Electrical Stimulation
Sodium channels are voltage-dependent proteins that can be activated by inducing membrane voltage changes by applying electric fields. The electrical stimulation instrument and methods of use are described in Ion Channel Assay Methods PCT/US01/21652, herein incorporated by reference and are referred to as E-VIPR. The instrument comprises a microtiter plate handler, an optical system for exciting the coumarin dye while simultaneously recording the coumarin and oxonol emissions, a waveform generator, a current- or voltage-controlled amplifier, and a device for inserting electrodes in well. Under integrated computer control, this instrument passes user-programmed electrical stimulus protocols to cells within the wells of the microtiter plate.
24 hours before the assay on E-VIPR, HEK cells expressing human NaV subtype, like NaV 1.7, are seeded in 384-well poly-lysine coated plates at 15,000-20,000 cells per well. Other subtypes are performed in an analogous mode in a cell line expressing the NaV of interest. HEK cells are grown in media (exact composition is specific to each cell type and NaV subtype) supplemented with 10% FBS (Fetal Bovine Serum, qualified; GibcoBRL #16140-071) and 1% Pen-Strep (Penicillin-Streptomycin; GibcoBRL #15140-122). Cells are grown in vented cap flasks, in 90% humidity and 10% CO2, to 100% confluence. They are usually split by trypsinization 1:10 or 1:20, depending on scheduling needs, and grown for 2-3 days before the next split.
100 mg/mL Pluronic F-127 (Sigma #P2443), in dry DMSO
Compound Plates: 384-well round bottom plate, e.g. Corning 384-well Polypropylene Round Bottom #3656
Cell Plates: 384-well tissue culture treated plate, e.g. Greiner #781091-1B
Bath1 buffer. Glucose 10 mM (1.8 g/L), Magnesium Chloride (Anhydrous), 1 mM (0.095 g/L), Calcium Chloride, 2 mM (0.222 g/L), HEPES 10 mM (2.38 g/L), Potassium Chloride, 4.5 mM (0.335 g/L), Sodium Chloride 160 mM (9.35 g/L).
Hexyl Dye Solution: Bath1 Buffer+0.5% β-cyclodextrin (make this prior to use, Sigma #C4767), 8 μM CC2-DMPE+2.5 μM DiSBAC6(3). To make the solution Add volume of 10% Pluronic F127 stock equal to volumes of CC2-DMPE+DiSBAC6(3). The order of preparation is first mix Pluronic and CC2-DMPE, then add DiSBAC6(3) while vortexing, then add Bath1+β-Cyclodextrin.
1) Pre-spot compounds (in neat DMSO) into compound plates. Vehicle control (neat DMSO), the positive control (20 mM DMSO stock tetracaine, 125 μM final in assay) and test compounds are added to each well at 160× desired final concentration in neat DMSO. Final compound plate volume will be 80 μL (80-fold intermediate dilution from 1 μL DMSO spot; 160-fold final dilution after transfer to cell plate). Final DMSO concentration for all wells in assay is 0.625%.
2) Prepare Hexyl Dye Solution.
3) Prepare cell plates. On the day of the assay, medium is aspirated and cells are washed three times with 100 μL of Bath1 Solution, maintaining 25 μL residual volume in each well.
4) Dispense 25 μL per well of Hexyl Dye Solution into cell plates. Incubate for 20-35 minutes at room temp or ambient conditions.
5) Dispense 80 μL per well of Bath1 into compound plates. Acid Yellow-17 (1 mM) is added and Potassium Chloride can be altered from 4.5 to 20 mM depending on the NaV subtype and assay sensitivity.
6) Wash cell plates three times with 100 μL per well of Bath1, leaving 25 of residual volume. Then transfer 25 uL per well from Compound Plates to Cell Plates. Incubate for 20-35 minutes at room temp/ambient condition
7) Read Plate on E-VIPR. Use the current-controlled amplifier to deliver stimulation wave pulses for typically 9 seconds and a scan rate of 400 Hz. A pre-stimulus recording is performed for 0.5 seconds to obtain the un-stimulated intensities baseline. […]

Chain of human NaV subtype, like NaV 1.7 (Q15858 whole entry): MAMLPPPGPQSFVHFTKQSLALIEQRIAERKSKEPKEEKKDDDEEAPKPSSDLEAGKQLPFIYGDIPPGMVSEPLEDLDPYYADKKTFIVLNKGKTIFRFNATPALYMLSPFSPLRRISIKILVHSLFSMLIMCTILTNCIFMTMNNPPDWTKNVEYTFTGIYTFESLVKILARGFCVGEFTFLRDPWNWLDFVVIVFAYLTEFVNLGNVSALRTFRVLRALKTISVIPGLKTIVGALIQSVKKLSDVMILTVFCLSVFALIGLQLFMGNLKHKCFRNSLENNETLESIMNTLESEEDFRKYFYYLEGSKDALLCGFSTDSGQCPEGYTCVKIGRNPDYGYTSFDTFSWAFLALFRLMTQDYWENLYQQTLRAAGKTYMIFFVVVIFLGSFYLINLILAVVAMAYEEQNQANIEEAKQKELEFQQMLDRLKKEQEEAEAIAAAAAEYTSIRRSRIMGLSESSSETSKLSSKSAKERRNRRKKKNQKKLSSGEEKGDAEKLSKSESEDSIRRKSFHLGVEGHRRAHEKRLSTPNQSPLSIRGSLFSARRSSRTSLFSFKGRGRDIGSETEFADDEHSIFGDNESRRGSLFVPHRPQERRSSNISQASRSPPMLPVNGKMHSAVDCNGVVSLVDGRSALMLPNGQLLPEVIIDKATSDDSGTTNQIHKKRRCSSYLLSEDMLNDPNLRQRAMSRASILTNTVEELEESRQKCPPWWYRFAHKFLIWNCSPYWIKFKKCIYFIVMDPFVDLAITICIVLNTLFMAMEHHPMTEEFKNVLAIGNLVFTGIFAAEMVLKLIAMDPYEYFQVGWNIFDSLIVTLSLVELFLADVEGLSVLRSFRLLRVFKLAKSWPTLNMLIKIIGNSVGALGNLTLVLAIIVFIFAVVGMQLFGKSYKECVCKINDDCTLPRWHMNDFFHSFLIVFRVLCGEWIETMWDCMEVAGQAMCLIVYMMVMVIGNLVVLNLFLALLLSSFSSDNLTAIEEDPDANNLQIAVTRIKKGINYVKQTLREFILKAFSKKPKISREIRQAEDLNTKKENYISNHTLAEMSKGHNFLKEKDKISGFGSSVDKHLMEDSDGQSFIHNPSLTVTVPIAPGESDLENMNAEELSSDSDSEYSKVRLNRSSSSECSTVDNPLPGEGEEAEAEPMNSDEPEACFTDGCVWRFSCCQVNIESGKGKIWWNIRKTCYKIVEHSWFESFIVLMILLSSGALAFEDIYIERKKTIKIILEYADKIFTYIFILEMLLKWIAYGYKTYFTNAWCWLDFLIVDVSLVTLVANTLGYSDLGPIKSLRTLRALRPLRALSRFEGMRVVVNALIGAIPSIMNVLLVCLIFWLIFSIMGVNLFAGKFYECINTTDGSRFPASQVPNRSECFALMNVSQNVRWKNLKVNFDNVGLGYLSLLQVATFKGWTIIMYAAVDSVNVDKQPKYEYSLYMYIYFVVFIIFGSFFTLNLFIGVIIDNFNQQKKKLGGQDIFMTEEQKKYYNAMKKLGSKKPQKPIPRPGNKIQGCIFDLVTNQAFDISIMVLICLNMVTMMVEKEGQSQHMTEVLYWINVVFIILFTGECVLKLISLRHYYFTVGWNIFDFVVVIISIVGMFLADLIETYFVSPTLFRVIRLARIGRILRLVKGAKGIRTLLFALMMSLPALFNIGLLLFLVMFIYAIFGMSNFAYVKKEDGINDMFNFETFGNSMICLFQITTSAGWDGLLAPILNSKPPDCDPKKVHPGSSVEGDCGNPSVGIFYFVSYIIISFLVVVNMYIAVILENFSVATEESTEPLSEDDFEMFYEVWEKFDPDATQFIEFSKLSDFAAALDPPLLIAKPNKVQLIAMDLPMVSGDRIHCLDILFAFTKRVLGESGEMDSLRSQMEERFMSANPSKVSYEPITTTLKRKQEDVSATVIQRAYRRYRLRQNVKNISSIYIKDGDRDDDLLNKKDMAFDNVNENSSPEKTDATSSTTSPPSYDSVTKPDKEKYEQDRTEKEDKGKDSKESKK

SMILES | pIC50
CCOC1CC(c2ccccc2)OC2(CCN(C(=O)c3ccc(N4CCCC4)nc3)CC2)C1 (stereo not drawn) [Compound 70] | 5.30 to 5.70
CCOC1CC(c2ccccc2)OC2(CCN(C(=O)c3ccc(OC(C)C)c(Cl)c3)CC2)C1 (stereo not drawn) [Compound 171] | ≥ 5.70
CCOC1CC(c2ccccc2)OC2(CCN(C(=O)c3ccc(C#N)c(C)n3)CC2)C1 (stereo not drawn) [Compound 50] | < 5.30
CCOC1CC(c2ccccc2)OC2(CCN(C(=O)c3cc(C)c(OC(C)C)c(C)c3)CC2)C1 (stereo not drawn) [Compound 29] | ≥ 5.70
CCOC1CC(c2ccccc2)OC2(CCN(C(=O)c3cnc4ccccc4c3)CC2)C1 (stereo not drawn) [Compound 95] | < 5.30
CCOC1CC(c2ccccc2)OC2(CCN(C(=O)c3ccc(F)c(F)c3OC)CC2)C1 (stereo not drawn) [Compound 19] | ≥ 5.70
CCOC1CC(c2cccnc2)OC2(CCN(C(=O)c3ccc(OC(C)C)c(C)n3)CC2)C1 (stereo not drawn) [Compound 38] | 5.30 to 5.70
CCOC1CC(c2ccccc2)OC2(CCN(C(=O)c3ccc(OC)c(OC(F)F)c3)CC2)C1 (stereo not drawn) [Compound 62] | ≥ 5.70
CCOC1CC(CC)OC2(CCN(C(=O)c3ccc(OC(C)C)c(C)c3)CC2)C1 (stereo not drawn) [Compound 194] | 5.30 to 5.70
CCOC1CC(c2cncs2)OC2(CCN(C(=O)c3ccc(OC(C)C)c(C)c3)CC2)C1 (stereo not drawn) [Compound 18] | ≥ 5.70
CCOC1CC(c2ccccc2)OC2(CCN(C(=O)c3ccc(C4(O)CCC4)cc3)CC2)C1 (stereo not drawn) [Compound 176] | ≥ 5.70
CCOC1CC(c2ccccc2)OC2(CCN(C(=O)c3c[nH]c4ncccc34)CC2)C1 (stereo not drawn) [Compound 89] | ≥ 5.70
CCOC1CC(c2ccccc2)OC2(CCN(C(=O)c3cccc(C)n3)CC2)C1 (stereo not drawn) [Compound 122] | < 5.30
CCOC1CC(c2ccccc2)OC2(CCN(C(=O)c3ccc(OC(F)F)c(OC)c3)CC2)C1 (stereo not drawn) [Compound 135] | ≥ 5.70
CCOC1CC(c2cccnc2)OC2(CCN(C(=O)c3ccc(OCCC(C)C)c(OC)c3)CC2)C1 (stereo not drawn) [Compound 39] | ≥ 5.70
CCOC1CC(c2ccccc2)OC2(CCN(C(=O)c3ccc(OC(C)(C)C)c(OC)c3)CC2)C1 (stereo not drawn) [Compound 137] | ≥ 5.70
CCOC1CC(c2ccccc2)OC2(CCN(C(=O)c3cc(-c4ccc(C)cc4)on3)CC2)C1 (stereo not drawn) [Compound 53] | 5.30 to 5.70
CCOC1CC(c2ccccc2)OC2(CCN(C(=O)c3ccc(OC(C)C)c(C#N)c3)CC2)C1 (stereo not drawn) [Compound 127] | ≥ 5.70
CCCOC1CC(c2cncs2)OC2(CCN(C(=O)c3ccc(OC(C)C)c(C)c3)CC2)C1 (stereo not drawn) [Compound 8] | ≥ 5.70
CCOC1CC(c2ccccc2)OC2(CCN(C(=O)c3ccc(N4CCOCC4)cc3)CC2)C1 (stereo not drawn) [Compound 93] | ≥ 5.70
CCOC1CC(c2cccnc2)OC2(CCN(C(=O)c3ccc(C(C)(C)C)c(OC)c3)CC2)C1 (stereo not drawn) [Compound 37] | ≥ 5.70
CCOC1CC(c2ccccc2)OC2(CCN(C(=O)c3ccc(C)cc3F)CC2)C1 (stereo not drawn) [Compound 97] | ≥ 5.70
CCOC1CC(c2ccccc2)OC2(CCN(C(=O)c3ccc(O[C@@H](C)CC)c(OC)c3)CC2)C1 (stereo partly drawn) [Compound 139] | ≥ 5.70
CCOC1CC(c2ccccc2)OC2(CCN(C(=O)c3cccnc3NC(C)C)CC2)C1 (stereo not drawn) [Compound 75] | ≥ 5.70
CCOC1CC(c2ccccc2)OC2(CCN(C(=O)c3ccc(COCC(F)(F)F)cc3)CC2)C1 (stereo not drawn) [Compound 46] | ≥ 5.70
CCOC1CC(c2ccccc2)OC2(CCN(C(=O)c3cccnc3N3CCCCC3)CC2)C1 (stereo not drawn) [Compound 64] | ≥ 5.70
CCOc1ncc(Cl)cc1C(=O)N1CCC2(CC1)CC(OCC)CC(c1ccccc1)O2 (stereo not drawn) [Compound 68] | 5.30 to 5.70
